This passage reports IC50 results from ChEMBL document CHEMBL4406807, “Discovery of 3,4,6-Trisubstituted Piperidine Derivatives as Orally Active, Low hERG Blocking Akt Inhibitors via Conformational Restriction and Structure-Based Design” (J Med Chem, 2019).

For assay [1], the target named is RAC-alpha serine/threonine-protein kinase (Homo sapiens, UniProt P31749).
Description: Inhibition of human Akt1 expressed in Escherichia coli using STK Substrate 2-biotin as substrate incubated for 1 hr by HTRF assay
The subject of assay [2] is HCT-116. In words: cells. To be noted: Homo sapiens, HCT-116, 72 h.
Assay [3] relates to OVCAR-8. In words: Antiproliferative activity against human OVCAR8 cells. The format is functional, cell-based.
The subject of assay [4] is LNCaP. In words: Antiproliferative activity against human LNCAP cells. It is filed as functional, cell-based.

Chain of RAC-alpha serine/threonine-protein kinase (P31749 whole entry): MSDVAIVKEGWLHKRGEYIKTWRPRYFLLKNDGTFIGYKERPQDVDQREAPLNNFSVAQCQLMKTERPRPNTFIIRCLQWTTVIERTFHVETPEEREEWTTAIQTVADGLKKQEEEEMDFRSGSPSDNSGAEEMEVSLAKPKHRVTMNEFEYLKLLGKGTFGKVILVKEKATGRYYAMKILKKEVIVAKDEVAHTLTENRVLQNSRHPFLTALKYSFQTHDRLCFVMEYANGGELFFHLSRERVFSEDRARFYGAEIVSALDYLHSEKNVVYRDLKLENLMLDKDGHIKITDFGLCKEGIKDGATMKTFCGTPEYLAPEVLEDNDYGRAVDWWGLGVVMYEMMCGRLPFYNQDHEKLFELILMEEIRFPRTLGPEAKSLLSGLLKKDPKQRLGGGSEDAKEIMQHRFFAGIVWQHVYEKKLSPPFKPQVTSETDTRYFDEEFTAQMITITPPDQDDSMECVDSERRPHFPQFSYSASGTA

Turning to `Cn1ncc(Br)c1-c1coc(C(=O)NC2CNCC2c2ccc(F)c(F)c2)c1` (racemic), in assay [1], the midpoint of inhibition, the IC50, lay at 3650 nM.
With `Cn1ncc(Cl)c1-c1cc(C(=O)NC2CNCCC2c2ccc(C(F)(F)F)cc2)oc1Cl` (stereo not given), inhibition in assay [1] was half-maximal at 7.2 nM (IC50).
As for `Cn1ncc(Br)c1-c1ccc(C(=O)N[C@@H]2CNCC[C@H]2c2ccc(F)c(F)c2)cc1`, the half-maximal inhibitory concentration (IC50) – broadly, the concentration that gives 50% inhibition – in assay [2] stood at 22200 nM; in assay [1], 73.5 nM; in assay [3] it was 2900 nM.
Take `CNc1cc(-c2ccc(C(=O)N[C@@H]3CNCC[C@H]3c3ccc(Cl)cc3)o2)ncn1`: the IC50 stood at 37100 nM in assay [2], 529 nM in assay [1] and 12300 nM in assay [3].
The compound `Cn1ncc(Cl)c1-c1cc(C(=O)NC2CNCCC2c2ccc(Cl)cc2)oc1Cl` (stereo not given) came in with an IC50 in assay [1] of 17.3 nM.
Regarding `Cn1nccc1-c1ccc(C(=O)N[C@@H]2CNCC[C@H]2c2cccc(F)c2)nc1`, the IC50 in assay [2] is 5630 nM; in assay [1], 76.6 nM; in assay [3], 7400 nM.
Take `Cn1ncc(Cl)c1-c1ccc(C(=O)N[C@@H]2CNCC[C@H]2c2ccc(F)c(F)c2)cc1`: the results for the IC50 in assay [2], in assay [1] and in assay [3] were 9880 nM, 27.3 nM and 2180 nM, respectively.
Take `Cn1ncc(Cl)c1-c1cc(C(=O)N[C@@H]2CN[C@H](CC(=O)NCC(O)CO)C[C@H]2c2ccc(Cl)c(Cl)c2)oc1Cl` (stereo not given in full): the half-maximal inhibitory concentration (IC50) was found to be 7090 nM in assay [2], 660 nM in assay [4], 3.13 nM in assay [1] and 5900 nM in assay [3].
Regarding `Cn1ncc(Br)c1-c1ccc(C(=O)N[C@@H]2CNCC[C@H]2c2cccc(F)c2)nc1`, the half-maximal inhibitory concentration (IC50) in assay [2] was determined as 6250 nM; in assay [1], 182 nM; in assay [3], 1920 nM.
With `COCC[C@@H]1C[C@@H](c2ccc(Cl)c(Cl)c2)[C@H](NC(=O)c2cc(-c3c(Cl)cnn3C)c(Cl)o2)CN1`, the IC50 in assay [2] worked out at 470 nM; in assay [4], 250 nM; in assay [1], 7.01 nM; in assay [3], 1060 nM.
Take `Cn1ncc(Cl)c1-c1cc(C(=O)N[C@@H]2CNCC[C@H]2c2ccc(Cl)cc2)sc1Cl`: the 50% inhibitory concentration (IC50) in assay [2] was found to be 2440 nM; in assay [1] it was 449 nM; in assay [3], 2510 nM.
On to `Cn1ncc(Cl)c1-c1cc(C(=O)N[C@@H]2CNCC[C@H]2c2cccc(F)c2)sc1Cl`, for which the 50% inhibitory concentration (IC50) in assay [2] worked out at 9430 nM; in assay [1], 102 nM; in assay [3], 8990 nM.
As for `Cn1ncc(Br)c1-c1coc(C(=O)N[C@@H]2CNCC[C@H]2c2ccc(Cl)cc2)c1`, the 50% inhibitory concentration (IC50) in assay [2] came out at 2310 nM; in assay [1], 35.6 nM; in assay [3], 9010 nM.
Regarding `CC(=O)OCC[C@@H]1C[C@@H](c2ccc(F)c(F)c2)[C@H](NC(=O)c2cc(-c3c(Cl)cnn3C)c(Cl)o2)CN1`, the IC50 in assay [2] turned out to be 690 nM; in assay [1], 3.4 nM; in assay [3] it was 4960 nM.
Consider `O=C(N[C@@H]1CNCC[C@H]1c1ccc(Cl)cc1)c1ccc(-c2cn[nH]c2)o1`, for which the values for the half-inhibitory concentration (IC50) in assay [2], in assay [1] and in assay [3] were 21800 nM, 50.3 nM and 5000 nM, respectively.
On to `Cn1ncc(Cl)c1-c1cc(C(=O)N[C@@H]2CNCC[C@@H]2c2ccc(F)c(F)c2)oc1Cl`, for which the concentration for half-maximal inhibition (IC50) in assay [1] was found to be 2.5 nM.
`Cn1nccc1-c1csc(C(=O)N[C@@H]2CNCC[C@H]2c2ccc(Cl)cc2)c1`: the values for the IC50 in assay [2], in assay [1] and in assay [3] were 8510 nM, 188 nM and 12600 nM, respectively.
On to `Cn1ncc(Br)c1-c1oc(C(=O)N[C@@H]2CNCC[C@H]2c2ccc(Cl)cc2)cc1Br`, for which the figures for the 50% inhibitory concentration (IC50) in assay [2], in assay [1] and in assay [3] were 10800 nM, 29.8 nM and 4540 nM, respectively.
For `NC1(C(=O)N[C@@H](CCO)c2ccc(Cl)cc2)CCN(c2nc[nH]c3nccc2-3)CC1` [CAPIVASERTIB], the IC50 was found to be 5200 nM in assay [2] and 178 nM in assay [4].
On to `Cn1ncc(Cl)c1-c1ccc(C(=O)N[C@@H]2CNCC[C@H]2c2ccc(F)c(F)c2)cn1`, for which the IC50 in assay [2] turned out to be 34700 nM; in assay [1] it was 215 nM; in assay [3], 6120 nM.
With `Cn1nccc1-c1ccc(C(=O)N[C@@H]2CNCC[C@H]2c2ccc(F)c(F)c2)cn1`, the IC50 was found to be 24200 nM in assay [2], 57.7 nM in assay [1] and 2110 nM in assay [3].
Regarding `C=CC[C@@H]1C[C@@H](c2ccc(Cl)c(Cl)c2)[C@H](NC(=O)c2cc(-c3c(Cl)cnn3C)c(Cl)o2)CN1`, the 50% inhibitory concentration (IC50) is 780 nM in assay [2], 160 nM in assay [4], 12.4 nM in assay [1] and 990 nM in assay [3].
`Cn1ncc(Br)c1-c1ccc(C(=O)N[C@@H]2CNCC[C@H]2c2ccc(Cl)cc2)o1`: the values for the half-inhibitory concentration (IC50) in assay [2], in assay [1] and in assay [3] were 3760 nM, 31.2 nM and 3680 nM, respectively.
Turning to `Cn1ncc(Cl)c1-c1cc(C(=O)NC2CNCCC2c2ccccc2)oc1Cl` (stereo not given), the concentration for half-maximal inhibition (IC50) in assay [1] amounted to 17.6 nM. This lies in the double-digit nanomolar range.
As to `Cn1ncc(Cl)c1-c1cc(C(=O)N[C@H]2CNCC[C@@H]2c2ccc(F)c(F)c2)oc1Cl`, the IC50 is 1090 nM in assay [2], 51.2 nM in assay [1] and 490 nM in assay [3].
The matching figures for `Cn1nccc1-c1ccc(C(=O)N[C@@H]2CNCC[C@H]2c2ccc(Cl)cc2)o1`: 9560 nM, 230 nM and 6090 nM.
On to `Cn1ncc(Br)c1-c1ccc(C(=O)N[C@@H]2CNCC[C@H]2c2ccc(F)c(F)c2)cn1`, for which the IC50 worked out at 26900 nM in assay [2], 270 nM in assay [1] and 6150 nM in assay [3].
Take `Cn1cc(-c2c(Cl)cnn2C)cc1C(=O)N[C@@H]1CNCC[C@H]1c1ccc(Cl)cc1`: the IC50 in assay [2] stood at 3040 nM; in assay [1] it was 212 nM; in assay [3], 6200 nM.
In the case of `Cn1ncc(Cl)c1-c1ccc(C(=O)N[C@@H]2CNCC[C@H]2c2ccc(Cl)cc2)o1`, the results for the half-maximal inhibitory concentration (IC50) in assay [2], in assay [1] and in assay [3] were 2560 nM, 13.7 nM and 4280 nM, respectively.
On to `Cn1ncc(Cl)c1-c1cc(C(=O)N[C@@H]2CNCC[C@H]2c2ccc(C(F)(F)F)cc2)oc1Cl`, for which the half-maximal inhibitory concentration (IC50) in assay [2] was found to be 280 nM; in assay [1], 9.3 nM; in assay [3] it was 120 nM.
`Cn1ncc(Cl)c1-c1oc(C(=O)N[C@@H]2CNCC[C@H]2c2ccc(Cl)cc2)cc1Br`: the IC50 in assay [2] came to 11700 nM; in assay [1], 40 nM; in assay [3], 6050 nM.
Take `Cn1nccc1-c1coc(C(=O)N[C@@H]2CNCC[C@H]2c2ccc(Cl)cc2)c1`: the concentration for half-maximal inhibition (IC50) is 1560 nM in assay [2], 29.4 nM in assay [1] and 3500 nM in assay [3].
As to `Cn1cc(-c2ccc(C(=O)N[C@@H]3CNCC[C@H]3c3ccc(Cl)cc3)o2)cn1`, the IC50 in assay [2] was 15100 nM; in assay [1], above 1000 nM; in assay [3] it was 4410 nM.
In assay [1], `Cn1nccc1-c1coc(C(=O)NC2CNCCC2c2ccccc2)c1` (stereo not given) came in with a half-maximal inhibitory concentration (IC50) of 710 nM.
Turning to `Cn1ncc(Cl)c1-c1cc(C(=O)N[C@@H]2CNCC[C@H]2c2ccc(Cl)c(C(F)(F)F)c2)sc1Cl`, the IC50 in assay [2] was found to be 1750 nM; in assay [1], 322 nM; in assay [3], 1150 nM.
For the compound `Cn1ncc(Cl)c1-c1cc(C(=O)N[C@@H]2CN[C@H](CC(=O)NC3CCC3)C[C@H]2c2ccc(Cl)c(Cl)c2)oc1Cl`, the IC50 in assay [2] was found to be 430 nM; in assay [4] it was 80 nM; in assay [1], 7.98 nM; in assay [3] it was 610 nM.
Turning to `Cn1ncc(Cl)c1-c1cc(C(=O)N[C@@H]2CNCC[C@H]2c2ccc(F)c(F)c2)sc1Cl`, the half-inhibitory concentration (IC50) was 2810 nM in assay [2], 222 nM in assay [1] and 3510 nM in assay [3].
On the same counts, the results for `O=C(N[C@@H]1CNCC[C@H]1c1ccc(Cl)cc1)c1ccc(-c2ncnc3c2CCC3O)s1` (stereo not given in full) are 23000 nM, above 1000 nM and 24000 nM.
`Cn1ncc(Cl)c1-c1cc(C(=O)NC2CNCCC2c2ccc(F)c(F)c2)oc1Cl` (racemic): the IC50 in assay [1] turned out to be 6.4 nM.
For the compound `Cn1ncc(Cl)c1-c1ccc(C(=O)N[C@@H]2CNCC[C@H]2c2cccc(F)c2)nc1`, the IC50 came out at 4720 nM in assay [2], 104 nM in assay [1] and 3460 nM in assay [3].
On the same counts, the results for `Cn1ncc(Cl)c1-c1cc(C(=O)N[C@@H]2CNCC[C@H]2c2ccc(Cl)cc2)n(C)c1Cl` are 7330 nM, 149 nM and 12400 nM.
On to `Cn1ncc(Cl)c1-c1cc(C(=O)N[C@@H]2CN[C@H](CCN3CCCC3)C[C@H]2c2ccc(Cl)c(Cl)c2)oc1Cl`, for which the IC50 in assay [2] was determined as 1940 nM; in assay [4], 1920 nM; in assay [1], 6.41 nM; in assay [3], 1840 nM.
For the compound `Cn1nccc1-c1oc(C(=O)N[C@@H]2CNCC[C@H]2c2ccc(Cl)cc2)cc1Br`, the IC50 came to 13700 nM in assay [2], 162 nM in assay [1] and 15000 nM in assay [3].
For `Cn1ncc(Cl)c1-c1cc(C(=O)N[C@H]2CNCC[C@@H]2c2ccc(C(F)(F)F)cc2)oc1Cl`, the IC50 in assay [2] came to 1050 nM; in assay [1], 127 nM; in assay [3] it was 900 nM.
On to `Cn1ncc(Cl)c1-c1coc(C(=O)N[C@@H]2CNCC[C@H]2c2ccc(F)c(F)c2)c1`, for which the 50% inhibitory concentration (IC50) in assay [2] came out at 990 nM; in assay [1], 5.1 nM; in assay [3] it was 1400 nM.
On the same counts, the results for `Cn1ncc(Cl)c1-c1cc(C(=O)N[C@@H]2CNCC[C@H]2c2ccc(Cl)cc2)oc1Cl` are 1870 nM, 17.3 nM and 1320 nM.
In turn, `Cn1nccc1-c1coc(C(=O)NC2CNCCC2c2ccc(F)c(F)c2)c1` (racemic) gave a half-maximal inhibitory concentration (IC50) in assay [1] of 191 nM.
On to `Cn1ncc(Br)c1-c1cc(C(=O)N[C@@H]2CNCC[C@H]2c2ccc(Cl)cc2)n(C)c1Br`, for which the IC50 in assay [2] turned out to be 7420 nM; in assay [1], 199 nM; in assay [3], 4920 nM.
In turn, `Cn1ncc(Cl)c1-c1coc(C(=O)NC2CNCC2c2ccc(F)c(F)c2)c1` (racemic) came in with a 50% inhibitory concentration (IC50) in assay [1] of 1570 nM.
Consider `Cn1ncc(Cl)c1-c1cc(C(=O)NC2CNCC2c2ccc(C(F)(F)F)cc2)oc1Cl` (stereo not given), for which the half-maximal inhibitory concentration (IC50) in assay [1] came to 538 nM.
Take `Cn1ncc(Cl)c1-c1cc(C(=O)N[C@@H]2CNCC[C@H]2c2cccc(C(F)(F)F)c2)oc1Cl`: the IC50 is 390 nM in assay [2], 8 nM in assay [1] and 120 nM in assay [3].
Take `Cn1cc(-c2coc(C(=O)N[C@@H]3CNCC[C@H]3c3ccc(Cl)cc3)c2)cn1`: the IC50 is 23600 nM in assay [2], above 1000 nM in assay [1] and 10000 nM in assay [3].
